Test results as given in patent publication US20230149493A1, “COMPOSITIONS AND METHODS FOR TREATING COVID-19 AND SYMPTOMS THEREOF” (YUVA BIOSCIENCES, INC., priority 2021, published 2023).

Tested on: peripheral blood mononuclear cells (PBMCs)
Assay: XF substrate oxidation stress test (Seahorse XFp, oxygen consumption rate)
Type: cell-based, human
Conditions: for basal respiration after blocking / maximal respiration after blocking: PBMCs of patients with COVID-19, BPTES 3 μM, etomoxir 4 μM, UK5099 2 μM
Procedure: Blood samples were obtained from the study participants. PBMCs were separated and plated on XFp eight-well polystyrene plates designed for the Seahorse XFp analyzer (Agilent Technologies, Santa Clara, Calif.) within 2 h. The Seahorse XFp analyzer (Agilent Technologies) was used to measure basal, ATP-linked, and maximal oxygen consumption rate (OCR); reserve capacity; and extracellular acidification rate (ECAR).
OCR, a measurement of mitochondrial respiration, and ECAR, which correlates to the number of protons released from the cell with potential contribution from glycolysis and the Krebs cycle, were measured in the presence of specific mitochondrial activators and inhibitors. Oligomycin (ATP synthase blocker) was used to measure ATP turnover and to determine proton leak; the mitochondrial uncoupler carbonyl cyanide 4-[trifluoromethoxy] phenylhydrazone (FCCP) was used to measure maximum respiratory function (maximal OCR).
Reserve capacity was calculated as maximal OCR minus the basal respiration.
For a measurement of basal respiration, three measurements were taken before injecting ATP synthase inhibitor oligomycin at 0.75 μM (final concentration). FCCP was then injected at 0.75 μM. Finally, a mixture of rotenone and antimycin A (1 μM) was injected. Mitochondrial basal respiration, proton leak, reserve capacity, and maximal respiration were measured after correcting for nonmitochondrial respiration.
OCR and ECAR rates were normalized to cell count for PBMCs.

Row | Compound | maximal respiration after blocking the glucose pathway (PBMCs of healthy controls (HC), before blocking=37±25) | basal respiration after blocking the glucose pathway (PBMCs of healthy controls (HC), before blocking=80±33) | basal respiration after blocking | maximal respiration after blocking | basal respiration after blocking the glucose pathway (PBMCs of patients with chest infection, before blocking=200±35) | maximal respiration after blocking the glucose pathway (PBMCs of patients with chest infection, before blocking=589±16)
1 | N#C/C(=C\c1cn(-c2ccccc2)c2ccccc12)C(=O)O [UK5099] | 34±5 | 52±28 | 128±5 | 254±24 | 195±33 | 558±19
2 | CCOC(=O)[C@@]1(CCCCCCOc2ccc(Cl)cc2)CO1 [etomoxir] |  |  | 128±2 | 255±16 |  | 
